Measurements from PMC4469915 (Molecules and Cells, 2015).

Experiments:
apoA-I = apoA-I (Homo sapiens, UniProt P02647); test: DMPC multilamellar liposome clearance, absorbance at […] nm; assay type: binding; conditions: lipid-free protein; liposomes; protein:DMPC 2:1 mol/mol as printed; 24.5°C
apoA4 = molecular target: T1, apoA4 (Homo sapiens, UniProt P06727); test: as above; assay type: binding; conditions: lipid-free protein; liposomes; protein:DMPC 2:1 mol/mol as printed; 24.5°C
T1 sequence (P06727 21-396): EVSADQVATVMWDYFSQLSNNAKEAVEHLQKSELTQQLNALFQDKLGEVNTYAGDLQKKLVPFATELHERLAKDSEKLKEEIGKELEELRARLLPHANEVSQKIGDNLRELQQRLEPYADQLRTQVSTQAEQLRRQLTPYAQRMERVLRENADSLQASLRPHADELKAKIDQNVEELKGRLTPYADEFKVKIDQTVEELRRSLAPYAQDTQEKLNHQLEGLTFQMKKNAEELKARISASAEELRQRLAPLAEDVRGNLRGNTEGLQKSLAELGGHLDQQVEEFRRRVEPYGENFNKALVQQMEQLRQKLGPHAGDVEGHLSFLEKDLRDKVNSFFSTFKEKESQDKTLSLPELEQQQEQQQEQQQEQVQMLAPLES

apoA-I, sequence (P02647 25-267): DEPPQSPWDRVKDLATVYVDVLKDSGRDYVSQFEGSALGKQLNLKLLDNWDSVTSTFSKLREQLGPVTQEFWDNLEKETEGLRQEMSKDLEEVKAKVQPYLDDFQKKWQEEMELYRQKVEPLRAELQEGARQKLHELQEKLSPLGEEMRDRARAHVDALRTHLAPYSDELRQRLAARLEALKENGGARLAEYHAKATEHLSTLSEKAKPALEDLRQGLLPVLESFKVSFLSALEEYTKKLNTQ

T1/2 (apoA-I): 11 ± 1 min
T1/2 (apoA4): 62 ± 10 min
SMILES: CCCCCCCCCCCCCC(=O)OC[C@H](COP(=O)([O-])OCC[N+](C)(C)C)OC(=O)CCCCCCCCCCCCC [DMPC]
